In patent US20140357688A1, “METHOD FOR INHIBITING EZH2 EXPRESSION IN BREAST CANCER CELLS” (Yung Shin Pharm. Ind. Co., Ltd., priority 2013, published 2014):

Columns and labels:
EZH2 = experiment: Western blot of EZH2 in tumor from MDA-MB-468 xenograft mice; type: in vivo, Nu/Nu mice
Procedure: (§1) (A)(B) Cells were treated with indicated concentration of YC-1 for 24 h (A) or 3 μM of YC-1 for indicated time (B). Cells were harvested and performed with western blotting analysis. […] The levels of protein expression were quantitated and shown under blots. (C) Cells were transfected with EZH2 shRNA for 0, 1, 2, 3, and 4 days and collected for determination of cell viability (left) and protein expression (right). (D)(E) After 4 days of EZH2 knockdown, cells were incubated with 3 μM YC-1 for 4 h and detected cell viability (D) and protein contents (E). (F) Tumor specimens were isolated and protein was extracted for western blot analysis.
Cells were lysed in PBS containing proteinase inhibitor and phosphatase inhibitors and sonication. Protein concentration was measured using the Bio-Rad protein assay kit (Bio-Rad Laboratories, Hercules, Calif., USA). Lysate protein was separated by electrophoresis of SDS-PAGE and transferred to Immobilon P membrane (EMD Millipore). […] The band intensities were analyzed and quantified by the Multi Gauge software (Fuji Photo Film).
Nu/Nu female mice (four weeks old) were from National Laboratory Animal Center, Taipei, Taiwan. […] Tumor size and body weights of mice were measured once per 3 days and tumor volume (mm^3) was calculated as the equation: length×(width)×0.5. […]

ERK = experiment: Western blot of ERK phosphorylation in MDA-MB-468 cells; type: cell-based, human; conditions: 3 μM YC-1; beginning at 2 h, maximal at 6 h
Procedure: (A) Cells were pretreated with KT5720 (3 μM), KT5823 (3 μM), NS2028 (30 μM), or ODQ (30 μM) and then stimulated with YC-1 (3 μM) for 6 h. Cells were collected for measurement of protein expression (left) or cell viability (middle). After 3 days of PKA knockdown, cells were induced with 3 μM YC-1 for 4 h. Cells were harvested and analyzed using western blotting (right). The levels of protein expression were quantitated and shown under blots. […] Cells were collected and analyzed protein expression (left) and cells viability (middle). p44/42 MAPK knockdown cells were treated with 3 μM YC-1 for 4 h and then detected protein expression (left). (C) Cells were treated with 3 μM YC-1 for indicated time. Cells were harvested for detection of protein phosphorylated activation. […] Six hours later, cells were harvested for EZH2 ubiquitination assay. (E) Cells were induced by 3 μM YC-1 for 6 h in the presence of PD98059 or KT5720. Cells were collected for the determination of ERK phosphorylation. Cells were lysed in PBS containing proteinase inhibitor and phosphatase inhibitors and sonication. Protein concentration was measured using the Bio-Rad protein assay kit (Bio-Rad Laboratories, Hercules, Calif., USA). […] The band intensities were analyzed and quantified by the Multi Gauge software (Fuji Photo Film).

H3K27me3 = experiment: Western blot of H3K27me3 in MDA-MB-468 cells; type: cell-based, human
Procedure: as §1
Cells were lysed in PBS containing proteinase inhibitor and phosphatase inhibitors and sonication. Protein concentration was measured using the Bio-Rad protein assay kit (Bio-Rad Laboratories, Hercules, Calif., USA). Lysate protein was separated by electrophoresis of SDS-PAGE and transferred to Immobilon P membrane (EMD Millipore). The membranes were incubated with appropriate primary antibodies and horseradish peroxidase-conjugated secondary antibodies (EMD Millipore). The signaling was visualized using Chemiluminescence substrate kit (EMD Millipore) and collected by the Luminesence image analyzer, LAS4000 (Fuji Photo Film Co., Tokyo, Japan). The band intensities were analyzed and quantified by the Multi Gauge software (Fuji Photo Film).

Ras = Ras activation (Raf-RBD pull-down); type: cell-based, human; conditions: 3 μM YC-1
Procedure: (A) Cells were pretreated with DMSO (as control), Bay-43-9006 (Bay, 10 μM), farnyesyl thiosalicylic acid (FTS, 10 μM), Src inhibitor I (SrcI, 10 μM), and genistein (Gen, 10 μM), then followed by YC-1 (3 μM) incubation for 6 h. Cells were harvested and lysed for western blot analysis (left, right) and cell viability (middle). The levels of protein expression were quantitated and shown under blots. (B) MDA-MB-468 cells were transfected with shRNA of Raf-1 or Src. After stimulation of 3 μM YC-1 for 4 h, cell protein was subjected to western blot analysis. (C) Cells were incubated with 3 μM YC-1 for indicated time and then lysed for detection of Src, Raf-1, and MEK activation by using specific anti-phosphorylated antibodies. (D) Cells were treated with 3 μM YC-1 for indicated time. Cells were lysed and detected Ras activation by using Raf-RBD conjugated agarose to pull-down Ras-GTP. The total Ras in cell lysate was also detected. […] Cells were lysed and protein expression was determined by western blot analysis. (F) Cells were induced by 3 μM YC-1 in the presence of indicated inhibitors. Cells were lysed and subjected to EZH2 ubiquitination assay.
Ras-GTP has a high affinity with Ras binding domain of Raf-1 (Raf-RBD). Accordingly, GST fusion protein containing Raf-RBD was applied to detect Ras activation. […]

EZH2 mRNA = experiment: Quantitative real-time RT-PCR of EZH2 mRNA; type: cell-based, human; conditions: 3 μM YC-1, 3 or 6 h; less inhibition than protein levels
Procedure: Cells were treated with 3 μM YC-1 for 3 or 6 h. Cells were collected for the detection of EZH2 mRNA expression with quantitative real-time RT-PCR described in Materials and Methods.
Total RNA was isolated from MDA-MB-468 cells treated with YC-1 and extracted using TRIzol® Reagent (Invitrogen). cDNA strain was reverse transcribed by oligo dT(15) using M-MLV reverse transcriptase (Invitrogen) according to the manufacturer's instructions. Quantitative real-time RT-PCR analysis was performed by a LightCycler® 480 II RTPCR system (Roche Applied Sciences, Manheim, Germany) using Fast Start DNA Master Plus SYBR Green I kit (Roche Applied Sciences). PCR primers were as follows: human EZH2 (NM_004456.4) 5′-[…]-3′ (Forward), 5′-[…]-3′ (Reverse); human GAPDH (NM_002046.3) 5′-[…]-3′ (Forward); 5′-[…]-3′ (Reverse). The expression level of EZH2 mRNA was normalized against the level of GAPDH mRNA in the same sample.

In the case of `OCc1ccc(-c2nn(Cc3ccccc3)c3ccccc23)o1` [YC-1, 3-(5′-hydroxymethyl-2′-furyl)-1-benzyl indazole], the “EZH2 level in tumor” value (EZH2) is reported as “decrease EZH2 level in tumor”, the “phosphorylated activation of ERK” value (ERK) is reported as “rapid phosphorylated activation” and the H3K27me3 level (H3K27me3) is reported as “kept unchanged”. For the same molecule, the Ras activation (Ras) was “could not induce Ras activation” and the “mRNA expression of EZH2” value (EZH2 mRNA) was “inhibitory effect”.
